In patent publication US6376666B1 (Nauchno-Issledovatelsky Institut Farmakologii Rossiiskoi …, priority 1994, dated 2002):
Marks after values point to notes of the source that are not given here.

Experiments:
Type in all cases: in vivo
[1] = tested on: ischemized myocardium of cats; assay: ST-segment elevation during 5 min occlusions of coronary artery (acute coronary deficiency); conditions: for change in mean elevation of ST-segment vs control occlusion: cats, 1.0 mg/kg i.v.
Procedure: These experiments were conducted in cats weighing 2,5-4,0 kg under anasthesia by i.v. injection of nembutal (40 mg/kg) in open chest conditions. Epicardium electrogram in 3-4 leads was registered in “Mingograph-81”. The value of mean elevation of ST-segment during 5 min occlusions of anterior left descending coronary artery with 15 min reperfusions between them was the main index of intensity of reversible ischemized damage of myocardium.
The statistical calculation was carried out with non-parametric Wilcocson method for associated variants.

cats = assay: hemodynamics and activity of intact heart in cats under anesthesia; conditions: for Cardiac volume, change from basal level / Heart rate, change from basal level / Mean blood flow accelaration (aortic), change from basal level / Mean blood pressure, change from basal level / Stroke volume, change from basal level: cats, 1.0 mg/kg i.v.
Procedure: The effects of compounds on the hemodynamics and activity of intact heart were studied in cats under anesthesia. The experiments were carried out under conditions of open chest. The phase curve of aortic blood flow was the main index of cardiac activity. The compounds were administered i.v. in physiological solution. The t-Student' test was used to estimate the statistical significance.

Balb/c mice = assay: open-field test, Balb/c mice (passive type of emotional-stress reaction); conditions: i.p., screening
Text: The main point of this approach consists in comparative analysis of the behavioural effects of tested compounds in two inbred strains of mice Balb/c and C57B1/6 with different hereditary types of emotional-stress reactions (ESR). The anxiolytic effect was estimated as the activation of the locomotor activity of animals with “passive” type of ESR (Balb/c mice). The main index describing the sedative properties of tested drugs was the inhibition of the locomotor activity of mice with “active” type of ESR (C57B1/6 strain). The anxioselectivity was evaluated according to coincidence of doses range which activated or inhibited the behavior of mice of different strains. Earlier this approach has been successfully used for estimation of anxioselective activity of such known drugs as phenazepam [Seredenin S. B. et al., Bull.Exp.Biol.Med., 1979, v.88, N7, p.38; Seredenin S. B. et al., Ann.Inst.Super.Sanita, 1990, v.26, N1, p.81-88], mexidol [Seredenin S. B. et al., Khimiko-Farmatsevt.Zhurnal, 1987, N2, p.134; Vironina T. A., Seredenin S. B., Ann.Inst.Super.Sanita, 1988, v.24, N3, p.461-466] and gidazepam [Seredenin S. B. et al., in: “Gidazepam” Kiev, Naukova Dumka, 1992, p.92; Seredenin S. B., Blednov Yu. A., Phys.Chem.Biol.Med., 1993, v.1, N1, p.53-60].
Male C57B1/6 and Balb/c mice (“Stolbovaya” animal farm), weighing 20-22 g were used. The animals were housed in a separate animal room in groups of ten and maintained on 12 h light-dark cycle (light from 8.00 till 20.00) with free access to standard food and water during two weeks before experiment. Testing was performed between 9.00 and 13.00. Every used compound was administered intraperitoneally in water solutions 30 min before testing (0,1 ml solution per 10 g of weight). The “open-field” apparatus consisted of cylinder closed from one end, illuminated by four 75 W lamps fixed to the walls 100 cm above the floor. The “open-field” apparatus was 100 cm in diameter and white-painted; the floor was marked with 3 black circles and some radial lines divided the floor into 16 peripheral and 8 central segments. 30 min after injection each animal was placed in the same peripheral square on the floor for 3 min of testing after 1 min exposure in the dark chamber. The following behavior variables were recorded: 1) the number of crossings in the peripheral area (peripheral activity); 2) the number of crossings in the central segments (central activity); 3) the number of rearings (vertical activity); 4) the emotionality was measured as the number of defecations during the test. The sum of all types of locomotor activity was marked as total activity. The t-Student test was used for statistical analysis.

Q: Which “change in mean elevation of ST-segment vs control occlusion” value (“change in mean elevation of ST-segment” for short) ([1]; occlusion 20 min after injection, 30 sec of occlusion) does the source give for `CCOc1ccc2nc(SCCN(C)C)[nH]c2c1` [VIII] here?
A: Its value is −0.45 mv.

Q: What about the “change in mean elevation of ST-segment” value ([1]; occlusion 20 min after injection, 1 min of occlusion) of the same compound?
A: Its value is −0.30 mv.

Q: And the “change in mean elevation of ST-segment” value ([1]; occlusion 20 min after injection, 2 min of occlusion)?
A: The value was −0.50 mv.

Q: And the “change in mean elevation of ST-segment” value ([1]; occlusion 20 min after injection, 4 min of occlusion)?
A: Its value is −0.50 mv.

Q: What about the “change in mean elevation of ST-segment” value ([1]; occlusion 20 min after injection, 5 min of occlusion) of the same compound?
A: Its value is −0.25 mv.

Q: What about the “change in mean elevation of ST-segment” value ([1]; occlusion 40 min after injection, 15 sec of reperfusion) of the same compound?
A: Its value is −0.75 mv.

Q: And the “change in mean elevation of ST-segment” value ([1]; occlusion 40 min after injection, 30 sec of occlusion)?
A: The value was −0.55 mv.

Q: And the “change in mean elevation of ST-segment” value ([1]; occlusion 40 min after injection, 1 min of occlusion)?
A: The value was −0.35 mv.

Q: And the “change in mean elevation of ST-segment” value ([1]; occlusion 40 min after injection, 2 min of occlusion)?
A: Its value is −0.40 mv.

Q: And the “change in mean elevation of ST-segment” value ([1]; occlusion 40 min after injection, 4 min of occlusion)?
A: Its value is −0.50 mv.

Q: And the “change in mean elevation of ST-segment” value ([1]; occlusion 40 min after injection, 5 min of occlusion)?
A: Its value is −0.85 mv.

Q: And the “change in mean elevation of ST-segment” value ([1]; occlusion immediately after injection, 15 sec of reperfusion)?
A: Its value is −0.40 mv.

Q: And the “change in mean elevation of ST-segment” value ([1]; occlusion immediately after injection, 30 sec of occlusion)?
A: The value was −1.20* mv.

Q: What about the “change in mean elevation of ST-segment” value ([1]; occlusion immediately after injection, 1 min of occlusion) of the same compound?
A: The value was −0.90* mv.

Q: What about the “change in mean elevation of ST-segment” value ([1]; occlusion immediately after injection, 2 min of occlusion) of the same compound?
A: The value was −1.25* mv.

Q: And the “change in mean elevation of ST-segment” value ([1]; occlusion immediately after injection, 4 min of occlusion)?
A: The value was −0.70 mv.

Q: What about the “change in mean elevation of ST-segment” value ([1]; occlusion immediately after injection, 5 min of occlusion) of the same compound?
A: The value was −0.80 mv.

Q: What about the “effect on mean elevation of ST-segment during 5 min occlusion, in words” value ([1]; cats, 1,0 mg/kg i.v.) of the same compound?
A: Its value is “decreased the mean elevation of ST-segment”.

Q: And the “effect on contractile function of heart, in words” value (cats; cats i.v., same doses as bradycardia)?
A: Its value is “slightly enhanced the contractility of myocardium”.

Q: What about the “duration of bradycardia after administration” value (cats; cats i.v., VIII 1,0, IX 0,5 and 1,0, XX 1,0 and 2,0 mg/kg) of the same compound?
A: The value was 30 min.

Q: And the “effect on heart rate, in words” value (cats; cats i.v., VIII 1,0, IX 0,5 and 1,0, XX 1,0 and 2,0 mg/kg, XXIII 1.0, verapamil 0.5 mg/kg)?
A: The value was “expressed bradycardia”.

Q: And the “Cardiac volume, change from basal level” value (cats; after 2 min)?
A: The value was “+7.0 ± 2.9%”.

Q: What about the “Heart rate, change from basal level” value (cats; after 2 min) of the same compound?
A: The value was −10.9 ± 2.3 %.

Q: What about the “Mean blood flow accelaration (aortic), change from basal level” value (cats; after 2 min) of the same compound?
A: Its value is “+3.3 ± 2.7%”.

Q: And the “Mean blood pressure, change from basal level” value (“Mean blood pressure, change” for short) (cats; after 2 min)?
A: The value was −1.8 ± 3.8%.

Q: What about the “Stroke volume, change from basal level” value (cats; after 2 min) of the same compound?
A: Its value is “+20.6 ± 6.5 %”.

Q: What about the “Cardiac volume, change from basal level” value (cats; after 5 min) of the same compound?
A: Its value is “+6.0 ± 12.8%”.

Q: And the “Heart rate, change from basal level” value (cats; after 5 min)?
A: The value was −3.2 ± 1.4%.

Q: What about the “Mean blood flow accelaration (aortic), change from basal level” value (cats; after 5 min) of the same compound?
A: The value was −2.0 ± 9.0%.

Q: What about the “Mean blood pressure, change” value (cats; after 5 min) of the same compound?
A: Its value is −2.8 ± 5.7%.

Q: And the “Stroke volume, change from basal level” value (cats; after 5 min)?
A: The value was “+5.6 ± 10.8%”.

Q: And the “Cardiac volume, change from basal level” value (cats; after 10 min)?
A: Its value is −7.5 ± 9.6%.

Q: What about the “Heart rate, change from basal level” value (cats; after 10 min) of the same compound?
A: Its value is −4.4 ± 1.9%.

Q: And the “Mean blood flow accelaration (aortic), change from basal level” value (cats; after 10 min)?
A: The value was −5.2 ± 7.8%.

Q: And the “Mean blood pressure, change” value (cats; after 10 min)?
A: The value was −7.8 ± 5.7%.

Q: What about the “Stroke volume, change from basal level” value (cats; after 10 min) of the same compound?
A: Its value is −3.5 ± 8.7%.

Q: What about the “Cardiac volume, change from basal level” value (cats; after 20 min) of the same compound?
A: The value was −7.2 ± 9.2%.

Q: What about the “Heart rate, change from basal level” value (cats; after 20 min) of the same compound?
A: Its value is −3.2 ± 1.8%.

Q: What about the “Mean blood flow accelaration (aortic), change from basal level” value (cats; after 20 min) of the same compound?
A: Its value is −6.2 ± 7.6%.

Q: What about the “Mean blood pressure, change” value (cats; after 20 min) of the same compound?
A: Its value is −12.0 ± 5.0%.

Q: And the “Stroke volume, change from basal level” value (cats; after 20 min)?
A: Its value is −4.5 ± 8.4%.

Q: And the “Cardiac volume, change from basal level” value (cats; after 30 min)?
A: The value was −2.2 ± 3.0%.

Q: And the “Heart rate, change from basal level” value (cats; after 30 min)?
A: The value was −5.4 ± 3.1%.

Q: What about the “Mean blood flow accelaration (aortic), change from basal level” value (cats; after 30 min) of the same compound?
A: The value was “+1.2 ± 2.1%”.

Q: And the “Mean blood pressure, change” value (cats; after 30 min)?
A: Its value is −6.5 ± 5.7%.

Q: What about the “Stroke volume, change from basal level” value (cats; after 30 min) of the same compound?
A: Its value is “+3.5 ± 3.5%”.

Q: And the “Cardiac volume, change from basal level” value (cats; after injection)?
A: Its value is 38.1 ± 11.6 %.

Q: What about the “Heart rate, change from basal level” value (cats; after injection) of the same compound?
A: Its value is −15.3 ± 1.1 %.

Q: And the “Mean blood flow accelaration (aortic), change from basal level” value (cats; after injection)?
A: The value was “+31.3 ± 10.8%”.

Q: And the “Mean blood pressure, change” value (cats; after injection)?
A: The value was −14.8 ± 12.5%.

Q: What about the “Stroke volume, change from basal level” value (cats; after injection) of the same compound?
A: The value was 63.2 ± 14.0 %.

Q: And the “effect on the behavior (locomotor activity) of Balb/c mice in open-field test, in words” value (Balb/c mice)?
A: The value was “neither activatory nor inhibitory effects”.
